# The METLIN SMRT retention time set (Domingo-Almenara et al. 2019)
# Experiment: gradient 5% acetonitrile 3 min, to 50% in 2 min, to 85% in 15 min, held 3 min, 100 µL/min
# Conditions: column: Zorbax Extend-C18 2.1 x 50 mm; eluents: water / acetonitrile, 0.1% formic acid
# Method in brief: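 Pure standards were run in mixtures of ~100 molecules by HPLC coupled to a quadrupole time-of-flight mass spectrometer. The column was a Zorbax Extend-C18 (2.1 × 50 mm, 1.8 μm) at 100 μL/min, with water and acetonitrile each containing 0.1% formic acid, in positive and negative ionization mode. Dead and dwell volumes were 40 μL and 900 μL. Retention time was taken from computationally picked adduct peaks, each manually inspected, with data collected over 3 months.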
row,SMILES,RP-LC retention time [s]
1,CCn1cc(S(=O)(=O)N2[C@H]3CC[C@@H]2c2cnc(-c4ccc(F)cc4)nc2C3)cn1,900
2,CC1CCCN(CCCNC(=O)CC2CCN(C(=O)C3CCCCC3)CC2)C1 (stereo not drawn),604
3,Cc1ccc(CNC(=O)Cn2c(C)cc(-c3nnc(-c4ccc(F)cc4)o3)c2C)cc1,982
4,COC(=O)c1cn(CC(=O)Nc2cc(Cl)ccc2OC)c2nc(C)ccc2c1=O,780
5,CCCCCC[C@@H]([C@@H](C)O)n1cnc2c(N)ncnc21,714
6,CC1CCc2[nH]nc(C(=O)NCC3CCCO3)c2C1 (stereo not drawn),702
7,Cc1cc(NC(=O)C2CCN(C(=O)CSc3nnnn3C)CC2)no1,607
8,CCCNC(=O)c1cc(-c2ccc(Cl)cc2)cn1C,957
9,CCn1cc(-c2ccc(C)cc2)cc1C(=O)NC(C)C,1040
10,CSc1ccc(-c2nc3cnccn3c2Nc2ccc3c(c2)OCCO3)cc1,863
11,CCn1ncc(NC(=O)c2ccc(OC)c(OC)c2)c(N2CCOCC2)c1=O,722
12,CCOc1ccc(-c2cc3c(=O)n(Cc4nc(-c5ccc(OC(C)C)cc5)no4)ncn3n2)cc1,1260
13,CC1(C(=O)Nc2cccc(F)c2)CCCCC(=O)N1 (stereo not drawn),694
14,Cc1c2cnn(CC(=O)NCc3ccc4c(c3)OCO4)c(=O)c2c(C)n1Cc1cccc(Cl)c1,880
15,CCOc1cc(C)c(C(C)C)cc1S(=O)(=O)NCc1ccccn1,766
16,Cc1ccc(-c2nc3cnccn3c2Nc2cccc(C)c2C)cc1,1040
17,O=c1n(Cc2ccc(F)cc2Cl)nc2ccc(S(=O)(=O)N3CCOCC3)cn12,863
18,Cn1ccc(C(=O)Nc2sccc2C(N)=O)n1,623
19,COc1cccc(Cn2cnc3c(-c4ccc(OC)c(OC)c4)csc3c2=O)c1,947
20,C=CCNC(=O)C(=O)Nc1ccc2c(c1)N(C(=O)C(C)C)CCC2,746
21,Cc1ccc(N2C(=O)C3N=NN(Cc4nc(-c5ccc(OC(C)C)cc5)no4)C3C2=O)cc1Cl (stereo not drawn),1170
22,CC1CCN(S(=O)(=O)c2cccn(Cc3cc(F)cc(F)c3)c2=O)CC1,974

row,SMILES,RP-LC retention time [s]
1,Cc1ccc(F)c(NC(=O)c2nc3nc(C)cc(C(F)F)n3n2)c1,846
2,COc1cc(OC)cc(C(=O)N2CCC3(C2)C(=O)N(C)c2ccc(OC)cc23)c1 (stereo not drawn),798
3,CCC(NC(=O)c1cn2ccc(C)cc2n1)c1ccc(OC)cc1 (stereo not drawn),707
4,O=C(Cc1cccn1-c1ccc(Cl)cc1)NCCCN1CCOCC1,625
5,O=C(Cn1c(=O)c2nncn2c2ncccc21)NCc1ccc(Cl)cc1,671
6,COc1ccc(C)cc1NC(=O)CCc1cccc2[nH]ccc12,942
7,Cc1cc(OC(C)C(=O)N2CCC3(O)CCCCC3C2)c2c3c(c(=O)oc2c1)CCCC3 (stereo not drawn),892
8,CCCCN1C(=O)C(C)(C(=O)Nc2ccc(F)c(F)c2)Oc2cccnc21 (stereo not drawn),1070
9,Cc1nnc2ccc(N3CCC(C(=O)NCCCOC(C)C)CC3)nn12,643
10,Cc1ccc(-c2cc3c4nnc(SCC(=O)Nc5ccc(Cl)cc5)n4ccn3n2)cc1C,1080
11,Cc1cc(C)n(Cc2nc(-c3ccc(NC(=O)C(C)C)cc3)oc2C)n1,816
12,CCNS(=O)(=O)c1cccnc1Nc1cccc(F)c1,963
13,CN(C)c1ccc(-c2nc3cnc(Br)cn3c2Nc2ccc3c(c2)OCCO3)cc1,881
14,c1ccc(CSc2nc3ncncc3[nH]2)cc1,719
15,COc1cccc(NS(=O)(=O)c2cc(-c3[nH]ncc3C(=O)N(C)C)oc2C)c1,668
16,CCCCN1C(=O)c2ccccc2C(C(=O)NCCC(=O)OC)C12CCCCC2 (stereo not drawn),868
17,O=C(Nc1ccc(NC(=O)N2CCC(C(=O)NCC3CC3)CC2)cc1)NC1CCCCC1,733
18,Cc1ccc(Nc2c(-c3cccc(Cl)c3)nc3ccc(C)cn23)cc1,804
19,CCCn1ncc(N2CCC(C(=O)NCC3CCCO3)CC2)cc1=O (stereo not drawn),608
20,COc1cc(Cl)ccc1C(=O)N(CC1CCOC1)C1CC1 (stereo not drawn),803
21,Cc1cc(C)cc(OCC(=O)N(Cc2ccc(Br)o2)C2CCS(=O)(=O)C2)c1 (stereo not drawn),966

# The next lines start with the values.
row,RP-LC retention time [s],SMILES
1,629,CCOC(=O)N1CCN(c2cc(C(=O)O)c3cc(NC(=O)COc4ccccc4)ccc3n2)CC1
2,806,CN1C(=O)c2cc(C(=O)NCCc3c[nH]c4ccccc34)nn2CC1(C)C(=O)NC1CCCCC1 (stereo not drawn)
3,768,c1ccc(-c2noc(-c3ccc(N4CCN(c5ccccn5)CC4)nc3)n2)cc1
4,573,O=C(CSCc1ccccc1)N1CC(c2nc3ccccc3[nH]2)C1
5,1240,COc1nc2ccccc2nc1N1CCCC(C(=O)N2CCN(c3ccccc3F)CC2)C1 (stereo not drawn)
6,872,CCN1CCn2cc(S(=O)(=O)N3CCN(c4cccc(Cl)c4)CC3)cc2C1=O
7,1230,Cc1nn(-c2nc3ccccc3[nH]2)c2c1C(=O)CC(c1ccc(C(C)C)cc1)C2 (stereo not drawn)
8,840,Cc1noc(-c2cc(=O)n(CC(=O)Nc3ccccc3)c3ccccc23)n1
9,676,Cc1ccccc1Nc1c(-c2ccccc2O)nc2cccc(C)n12
10,706,COc1ccc2[nH]c(C(=O)N3CCN(C(=O)c4ccco4)CC3)cc2c1
11,1110,Cc1cccc(Oc2cc(N3CCC(C(=O)NCCC4=CCCCC4)CC3)ncn2)c1C
12,576,O=C(NCCCN1CCCCCC1)c1csc(-c2ccnc(N3CCOCC3)c2)n1
13,832,O=C(c1ccccn1)N1CCCC1c1nc(-c2ccc(F)cc2F)no1 (stereo not drawn)
14,1130,CCOC(=O)c1nc(N(CC)c2ccc(CC)cc2)c2ccccc2n1
15,802,O=C(NCc1csc(-c2cccs2)n1)C1CCN(C(=O)c2cccc(Cl)c2)CC1
16,730,O=C(NC1CCCCCC1)C1CCCN(c2ccnc(-c3ccc(F)cc3)n2)C1 (stereo not drawn)
17,1060,O=C(Nc1cccc(Br)c1)N1CCc2nc(-c3ccc(F)cc3)ncc2C1
18,741,O=C(C1=CN(c2ccc(F)cc2)c2ccccc2S1(=O)=O)N1CCOCC1
19,1070,CCOc1ccc(CC(=O)N2c3ccccc3CC2c2nc(C3CC3)no2)cc1OCC (stereo not drawn)
20,681,COc1ccccc1CNC(=O)Cn1cc(C(=O)N2CCCC2)c(=O)c2ccc(C)nc21
21,791,Cc1cccc(N2CCN(C(=O)Cn3c(=O)c4nncn4c4ncccc43)CC2)c1C
22,874,COc1ccc(-c2nc3cccnc3n2C2CCN(S(=O)(=O)Cc3ccccc3)C2)cc1 (stereo not drawn)
23,1050,CC1(C)CC(=O)c2cn(-c3ccccc3)c(=O)c(C(=O)Nc3ccc(Cl)cn3)c2C1

row,RP-LC retention time [s],SMILES
1,581,CCc1cc(N2CCN(C(=O)c3ccc(C#N)cc3)CC2)nc2nncn12
2,763,CC(=O)N1CCc2cc(N3CC(C(=O)NCc4ccccc4F)CC3=O)ccc21 (stereo not drawn)
3,884,Cc1cccc(Nc2nc(C)c(C(=O)N3CCN(c4ccccc4)CC3)s2)n1
4,559,COc1ccc(NCc2nnc3n2CCCCC3)cc1OC
5,827,CCS(=O)(=O)N1CCCN(C2=NS(=O)(=O)C(c3ccc(C)cc3)=C2C)CC1
6,895,COc1ccc(-c2nc(C)cc3nn(CC(=O)Nc4ccc(C)c(C)c4)c(=O)n23)cc1
7,576,CCOc1ccc(N2C(=O)Nc3ccccc3C2(O)C(=O)NCCCN2CCCCC2)cc1 (stereo not drawn)
8,939,Cc1ccc(C2=NC3(CCN(C(=O)c4ccc5c(c4)OCO5)CC3)ON2)cc1
9,956,Cc1ccc(S(=O)(=O)N2CC(=O)N(c3ccc(F)cc3)C(C)(C(=O)NC3CCCC3)C2)cc1 (stereo not drawn)
10,780,Cc1ccsc1CN1CCc2nc(N3CCN(c4ccccc4F)CC3)ncc2C1
11,698,Cc1noc2ncnc(N3CCCC(C(=O)Nc4ccc(N5CCC(C)CC5)cc4)C3)c12 (stereo not drawn)
12,704,CN(CCNC(=O)C1CCCN(S(=O)(=O)c2ccc3c(ccn3C)c2)C1)Cc1ccccc1 (stereo not drawn)
13,760,O=C(c1ccc2c(c1)OCO2)N1CCC2(CC1)NC(=O)N(Cc1ccccc1)C2=O
14,614,Cc1ccc(-c2nnc(N3CCC(C(=O)NCCN4CCOCC4)CC3)o2)cc1
15,691,O=C(Cc1c(F)cccc1Cl)Nc1nnc(C2CC(=O)N(c3ccccc3)C2)o1 (stereo not drawn)
16,636,O=C(C1CCCO1)N1CCC(OCc2nc(-c3cccnc3)no2)CC1 (stereo not drawn)
17,583,CCN1CCN(CCNC(=O)Cn2c(=O)n(-c3ccc(F)cc3)c3ncccc32)CC1
18,615,COc1ccc(-c2ccc(N3CCN(C(=O)c4cnc5ccccc5n4)CC3)nn2)cc1
19,820,Cc1nc(-c2ccc(OC3CCN(C(=O)NC4CCCC4)C3)cc2)no1 (stereo not drawn)
20,823,O=C(CN1C(=O)C2CCCN2C(=O)c2ccccc21)c1ccc(Br)cc1 (stereo not drawn)
21,775,O=C(NCCc1c[nH]c2ccccc12)C1CCCN(c2nn3c(=O)c4c(nc3s2)CCCC4)C1 (stereo not drawn)
22,601,CCCc1cc(N2CCN(C(=O)c3cccs3)CC2)nc2nncn12
